Assay results published in patent US10098852B2 (LAUNX BIOMEDICAL CO., LTD., priority 2014, dated 2018).
Several values for one entry are separate records, joined by “and”; a condition that tells them apart may be missing. Identical values can stand only once. Like-named read-outs stand apart in the source and are kept apart here.

How the values were obtained:
[1] = test system: 786-O (Renal adenocarcinoma); test: Cell viability analysis (WST-1), renal cancer cell line 786-O; format: cell-based; conditions: Homo sapiens
Description: (§1) The cell numbers were counted and reseed as 2×10^6 in cell culture plate/flask. Then, the culture medium was added to a volume of 10 ml, and the cells were cultured for 2-3 days. Then, the cells were suspended for loading into 96-well plates. The cell number was 3000/well and the volume of the culture medium was 100 μl each well.
(§2) Removing the original culture medium from 96-well plate. Then add 100 μl of commercially drug at a concentration of 10 μM per well. After 72 hours, add the diluted WST-1 reagent to the well with 100 μl/well, and the diluted WST-1 reagent was acquired from the dilution of 9:1 medium and WST-1 stock reagent. Finally, the total volume of each well was 200 μl/well. Culture the 96-well plate at 37° C. for 30 to 90 minutes. Detecting and calculate the survival rate of each cancer cells with an ELISA reader at OD450 nm.

normal cells = test: Toxicity to normal cells (overall statement); format: cell-based
[2] = test system: MCF7 (Mammary Gland, Adenocarcinoma); test: Cell viability analysis (WST-1), breast cancer cell line MCF7; format: cell-based; conditions: Homo sapiens
Description: as §1, §2

[3] = test system: BxPC-3 (pancreatic cancer cell line); test: Cell viability analysis (WST-1), pancreatic cancer cell line BxPC-3; format: cell-based; conditions: Homo sapiens
Description: as §1, §2

[4] = test system: AsPC-1 (pancreatic cancer cell line); test: Cell viability analysis (WST-1), pancreatic cancer cell line AsPC-1; format: cell-based; conditions: Homo sapiens
Description: as §1, §2

[5] = test system: HCT116-wt (colorectal carcinoma); test: Cell viability analysis (WST-1), colorectal cancer cell line HCT116-wt; format: cell-based
Description: as §1, §2

[6] = test system: T24 (bladder cancer cell line); test: Cell viability analysis (WST-1), bladder cancer cell line T24; format: cell-based; conditions: T24, 10 μM
Description: as §1, §2

hepatic cancer cell = test: Summary of the effect on hepatic cancer cell (HepG2, Hep3B); format: cell-based; conditions: hepatic cancer cell (mean of HepG2 and Hep3B averages), 72 hours, read-out: Inhibitory effect
Description: as §2

[7] = test system: LNCap (prostate cancer cell line); test: Cell viability analysis (WST-1), prostate cancer cell line LNCap; format: cell-based; conditions: Homo sapiens
Description: as §1, §2

[8] = test system: PC-3 (Prostate adenocarcinoma); test: Cell viability analysis (WST-1), prostate cancer cell line PC-3; format: cell-based; conditions: PC-3, 10 μM
Description: as §1, §2

colorectal cancer cell = test: Summary of the effect on colorectal cancer cell (HCT116-wt, LoVo); format: cell-based; conditions: Homo sapiens, colorectal cancer cell (mean of HCT116-wt and LoVo averages), 72 hours, read-out: Inhibitory effect
Description: as §2

[9] = Animal model test of gastric cancer: body weight and survival; format: in vivo, mice (BALB/cAnN.Cg-Foxn1nu/CrlNarl); conditions: for weight: individual mice A, B, C
Description: In this invention, the female mice were (BALB/cAnN.Cg-Foxn1^nu/CrlNarl) purchased from National Laboratory Animal Center (Taiwan)). The weight of the mice were 21±1 g. These mice were subcutaneously injected with gastric cancer cells (AGS) and then put these mice into different cages at random. The drug test experiment was divided into three groups, include “control group”, “low dose group (100 mg/kg/day)”, and “high dose group (200 mg/kg/day)”. These mice were then injected test drug intraperitoneally once daily […]. The tumor sizes and body weight were measured twice a week. The tumor sizes were measured and calculated by formula: (L×W^2)/2. L represents the tumor longest length. W represents the tumor shortest diameter.

[10] = Cell viability analysis (WST-1), normal pulmonary epithelial cell line BEAS-2B; format: cell-based; conditions: human, BEAS-2B normal pulmonary epithelial cells, BEAS-2B normal cells
Source text: Subculture the different types of cancer cells. The cancer cells lines includes lung cancer, gastric cancer, hepatic cancer, colon cancer, skin cancer, cervical cancer, prostate cancer, bladder cancer, breast cancer, leukemia, pancreatic cancer, ovarian cancer, tongue cancer, osteosarcoma, and renal cancer. The normal cells used in the control group included kidney cell line (HEK293) and human bronchial epithelial cell line BEAS-2B.
as §1, §2

[11] = test system: HeLa (Cervix Adenocarcinoma); test: Cell viability analysis (WST-1), cervical cancer cell line HeLa; format: cell-based; conditions: Homo sapiens
Description: as §1, §2

[12] = 72 h, average of 4 tests, read-out: inhibition effect (survival rate of cells), average

Oc1ccc(OCc2ccccc2)cc1 [Monobenzone]
viability at 10 µM ([1]; 786-0, 786-O, 72 hours, test 0524-10 min, read-out: inhibition effect (survival rate of cells)): 39.8% | viability at 10 µM ([1]; 786-0, 786-O, 72 hours, test 0526-10 min, read-out: inhibition effect (survival rate of cells)): 32.4% | viability at 10 µM ([1]; 786-0, 786-O, 72 hours, test 0529-10 min, read-out: inhibition effect (survival rate of cells)): 21.2% | viability at 10 µM ([1]; 786-0, 786-O, 72 hours, test 0531-10 min, read-out: inhibition effect (survival rate of cells)): 23.4% | viability at 10 µM ([1]; 786-0, 72 h, 786-O, average of 4 tests, read-out: inhibition effect (survival rate of cells), average): 29.2% | viability at 10 µM ([1]; 786-0, 72 h, Kidney cancer cell (786-O average), read-out: Inhibitory effect): 29.2% | toxicity to normal cells (in words) (normal cells): no toxicity or had little toxicity to normal cells | viability at 10 µM ([2]; MCF7, 72 h, MCF7, 10 μM, average of 4 tests, read-out: inhibition effect (survival rate of cells), average): 95.7% | viability at 10 µM ([2]; MCF7, MCF7, 10 μM, 72 hours, test 0612-10 min, read-out: inhibition effect (survival rate of cells)): 107% | viability at 10 µM ([2]; MCF7, MCF7, 10 μM, 72 hours, test 0614-10 min, read-out: inhibition effect (survival rate of cells)): 88.8% | viability at 10 µM ([2]; MCF7, MCF7, 10 μM, 72 hours, test 0616-10 min, read-out: inhibition effect (survival rate of cells)): 80.6% | viability at 10 µM ([2]; MCF7, MCF7, 10 μM, 72 hours, test 0619-10 min, read-out: inhibition effect (survival rate of cells)): 106% | viability at 10 µM ([3]; BXPC-3, 72 h, BxPC-3, 10 μM, average of 4 tests, read-out: inhibition effect (survival rate of cells), average): 78.6% | viability at 10 µM ([3]; BXPC-3, BxPC-3, 10 μM, 72 hours, test 3-4-30 min, read-out: inhibition effect (survival rate of cells)): 86.3% | viability at 10 µM ([3]; BXPC-3, BxPC-3, 10 μM, 72 hours, test 3-7-3-30 min, read-out: inhibition effect (survival rate of cells)): 57.4% | viability at 10 µM ([3]; BXPC-3, BxPC-3, 10 μM, 72 hours, test 3-7-4-30 min, read-out: inhibition effect (survival rate of cells)): 100% | viability at 10 µM ([3]; BXPC-3, BxPC-3, 10 μM, 72 hours, test 3-7-7-30 min, read-out: inhibition effect (survival rate of cells)): 70.7% | viability at 10 µM ([4]; ASPC1, 72 h, AsPC-1, 10 μM, average of 4 tests, read-out: inhibition effect (survival rate of cells), average): 95.1% | viability at 10 µM ([4]; ASPC1, AsPC-1, 10 μM, 72 hours, test 1-4-30 min, read-out: inhibition effect (survival rate of cells)): 93.7% | viability at 10 µM ([4]; ASPC1, AsPC-1, 10 μM, 72 hours, test 1-7-3-30 min, read-out: inhibition effect (survival rate of cells)): 88.7% | viability at 10 µM ([4]; ASPC1, AsPC-1, 10 μM, 72 hours, test 1-7-4-30 min, read-out: inhibition effect (survival rate of cells)): 116% | viability at 10 µM ([4]; ASPC1, AsPC-1, 10 μM, 72 hours, test 1-7-7-30 min, read-out: inhibition effect (survival rate of cells)): 81.7% | viability at 10 µM [5, 12]: 95% | viability at 10 µM ([5]; 72 hours, test 0602-30 min, read-out: inhibition effect (survival rate of cells)): 91.1% | viability at 10 µM ([5]; 72 hours, test 0605-10 min, read-out: inhibition effect (survival rate of cells)): 104% | viability at 10 µM ([5]; 72 hours, test 0607-10 min, read-out: inhibition effect (survival rate of cells)): 99.9% | viability at 10 µM ([5]; 72 hours, test 0609-10 min, read-out: inhibition effect (survival rate of cells)): 85.3% | viability at 10 µM [6, 12]: 87% | viability at 10 µM ([6]; 72 hours, test T24-1-30 min, read-out: inhibition effect (survival rate of cells)): 93.5% | viability at 10 µM ([6]; 72 hours, test T24-2-20 min, read-out: inhibition effect (survival rate of cells)): 70.4% | viability at 10 µM ([6]; 72 hours, test T24-3-20 min, read-out: inhibition effect (survival rate of cells)): 89.4% | viability at 10 µM ([6]; 72 hours, test T24-4-20 min, read-out: inhibition effect (survival rate of cells)): 94.7% | viability at 10 µM (hepatic cancer cell): 95.4% | viability at 10 µM [7, 12]: 67.9% | viability at 10 µM ([7]; 72 hours, test LNCap-1-10 min, read-out: inhibition effect (survival rate of cells)): 65.5% | viability at 10 µM ([7]; 72 hours, test LNCap-2-20 min, read-out: inhibition effect (survival rate of cells)): 52.7% | viability at 10 µM ([7]; 72 hours, test LNCap-3-20 min, read-out: inhibition effect (survival rate of cells)): 81.6% | viability at 10 µM ([7]; 72 hours, test LNCap-4-20 min, read-out: inhibition effect (survival rate of cells)): 71.6% | viability at 10 µM [8, 12]: 62.5% | viability at 10 µM ([8]; 72 hours, test PC-3-0524-10 min, read-out: inhibition effect (survival rate of cells)): 57% | viability at 10 µM ([8]; 72 hours, test PC-3-0526-10 min, read-out: inhibition effect (survival rate of cells)): 70.6% | viability at 10 µM ([8]; 72 hours, test PC-3-0529-10 min, read-out: inhibition effect (survival rate of cells)): 63.2% | viability at 10 µM ([8]; 72 hours, test PC-3-0531-10 min, read-out: inhibition effect (survival rate of cells)): 59% | viability at 10 µM (colorectal cancer cell): 89% | health status / death of tested mice during the treatment (in words) ([9]; both high and low doses): healthy status during the treatment without death | weight of mice during the experiment (in words) ([9]; both low dose and high dose, FIG. 2): did not show a significant decrease | weight ([9]; high dose (200 mg/kg/day) i.p. once daily, Fifth measurement, 200 mg/kg/day): 20 g (2×) and 21 g | weight ([9]; high dose (200 mg/kg/day) i.p. once daily, First measurement, 200 mg/kg/day): 20 g (2×) and 19.5 g | weight ([9]; high dose (200 mg/kg/day) i.p. once daily, Fourth measurement, 200 mg/kg/day): 20 g (2×) and 21 g | weight ([9]; high dose (200 mg/kg/day) i.p. once daily, Second measurement, 200 mg/kg/day): 19 g (2×) and 20 g | weight ([9]; high dose (200 mg/kg/day) i.p. once daily, Third measurement, 200 mg/kg/day): 20.5 g and 19 g and 20 g | weight ([9]; low dose (100 mg/kg/day) i.p. once daily, Fifth measurement, 100 mg/kg/day): 20 g (2×) and 21 g | weight ([9]; low dose (100 mg/kg/day) i.p. once daily, First measurement): 21 g | weight ([9]; low dose (100 mg/kg/day) i.p. once daily, Fourth measurement, 100 mg/kg/day): 20 g (2×) and 21 g | weight ([9]; low dose (100 mg/kg/day) i.p. once daily, Second measurement, 100 mg/kg/day): 20 g (2×) and 19 g | weight ([9]; low dose (100 mg/kg/day) i.p. once daily, Third measurement, 100 mg/kg/day): 19.5 g and 19 g and 18.5 g | viability at 72 h, 10 µM ([10]; average of 4 tests, read-out: inhibition effect (survival rate of cells), average): 73.8% | viability at 72 h, 10 µM ([10]; test 0510-10 min, read-out: inhibition effect (survival rate of cells)): 84.7% | viability at 72 h, 10 µM ([10]; test 0512-10 min, read-out: inhibition effect (survival rate of cells)): 79.5% | viability at 72 h, 10 µM ([10]; test 0515-10 min, read-out: inhibition effect (survival rate of cells)): 74.9% | viability at 72 h, 10 µM ([10]; test 0517-10 min, read-out: inhibition effect (survival rate of cells)): 56.2% | viability at 10 µM [11, 12]: 80.1% | viability at 10 µM ([11]; 72 hours, test 0524-10 min, read-out: inhibition effect (survival rate of cells)): 82.8% | viability at 10 µM ([11]; 72 hours, test 0526-10 min, read-out: inhibition effect (survival rate of cells)): 72.8% | viability at 10 µM ([11]; 72 hours, test 0529-10 min, read-out: inhibition effect (survival rate of cells)): 82.7% | viability at 10 µM ([11]; 72 hours, test 0531-10 min, read-out: inhibition effect (survival rate of cells)): 81.9%
